Assay results as given in patent US11491232B2, “Lactuloside compounds and preparation and use thereof” (Fruithy Holdings Limited, priority 2017, dated 2022).

What was measured:
[1] = tested on: colon flora; assay: Stability in the presence of colon flora (content in colon of rat); type: in vitro ADME, SD rat; settings: male, rat, pH 6.8
Method: A phosphate buffer solution with a pH of 7.0 was formulated, and then CO2 was introduced to the solution to adjust the pH to 6.8. Then, the content in colon of a male SD rat (body weight: 180-220 g) was placed in a water bath at 37° C., and added into the phosphate buffer solution with a pH of 6.8 as prepared above under the protection of N2 to a concentration of 20% (w/v). The buffer solution was kept in an oxygen-free environment. Then, the test Compound 17 was added to the buffer solution, and the solution was stirred uniformly.
Supernatant was analyzed with HPLC, where the amount of each ingredient was calculated by normalization.
Note: in the above table, “T14.148 (%)” represents the percentage of peak area of the material with a retention time of 14.148 min “T14.713 (%)” represents the percentage of peak area of the material with a retention time of 14.713 min. “T16.392 (%)” represents the percentage of peak area of the material with a retention time of 16.392 min. “T22.624 (%)” represents the percentage of peak area of the material with a retention time of 22.624 min.
(§1) Other typical example compounds were tested for stability according to the above method, and the test results are shown in Table 8 below.

[2] = Test on stability in mediums in vitro (buffer solutions with different pH, simulated intestinal fluid, simulated gastric fluid); type: physicochemical
Method: At 37° C., Compound 17 was incubated in different mediums (buffer solutions with different pH, a simulated intestinal fluid containing pancreatin, and simulated gastric fluid containing pepsin).
as §1

SMILES: C[C@]12C=CC(=O)C=C1CC[C@@H]1[C@@H]2C(=O)C[C@@]2(C)[C@H]1CC[C@]2(O)C(=O)COC1(CO)O[C@H](CO)[C@@H](O[C@@H]2O[C@H](CO)[C@H](O)[C@H](O)[C@H]2O)[C@@H]1O (stereo partly drawn) [Compound 17, 17-hydroxyl-21-{[4-O-(β-D-galactopyranosyl)-D-fructofuranosyl]oxy}pregna-1,4-diene-3,11,20-trione]
- Compound 17 (%) ([1]; SD, 0 h): 84.8%
- T14.148 (%) (percentage of peak area of the material with a retention time of 14.148 min) ([1]; SD, 0 h): 13.5%
- T22.624 (%) (percentage of peak area of the material with a retention time of 22.624 min) ([1]; SD, 0 h): 0.0%
- Compound 17 (%) ([1]; SD, 1 h): 49.0%
- T14.148 (%) (percentage of peak area of the material with a retention time of 14.148 min) ([1]; SD, 1 h): 42.5%
- T22.624 (%) (percentage of peak area of the material with a retention time of 22.624 min) ([1]; SD, 1 h): 0.0%
- Compound 17 (%) ([1]; SD, 2 h): 25.3%
- T22.624 (%) (percentage of peak area of the material with a retention time of 22.624 min) ([1]; SD, 2 h): 0.0%
- T22.624 (%) (percentage of peak area of the material with a retention time of 22.624 min) ([1]; SD, 3 h): 0.0%
- Compound 17 (%) ([1]; SD, 20 h): 0.0%
- T22.624 (%) (percentage of peak area of the material with a retention time of 22.624 min) ([1]; SD, 20 h): 7.8%
- Prednisone (%) (released from Compound 17) ([1]; Sprague-Dawley (SD), 0 h): 1.7%
- T14.713 (%) (percentage of peak area of the material with a retention time of 14.713 min) ([1]; Sprague-Dawley (SD), 0 h): 0.0%
- T16.392 (%) (percentage of peak area of the material with a retention time of 16.392 min) ([1]; Sprague-Dawley (SD), 0 h): 0.0%
- Prednisone (%) (released from Compound 17) ([1]; Sprague-Dawley (SD), 1 h): 8.1%
- T14.713 (%) (percentage of peak area of the material with a retention time of 14.713 min) ([1]; Sprague-Dawley (SD), 1 h): 0.0%
- T16.392 (%) (percentage of peak area of the material with a retention time of 16.392 min) ([1]; Sprague-Dawley (SD), 1 h): 0.0%
- Prednisone (%) (released from Compound 17) ([1]; Sprague-Dawley (SD), 2 h): 14.7%
- T14.148 (%) (percentage of peak area of the material with a retention time of 14.148 min) ([1]; Sprague-Dawley (SD), 2 h): 59.1%
- T14.713 (%) (percentage of peak area of the material with a retention time of 14.713 min) ([1]; Sprague-Dawley (SD), 2 h): 0.0%
- T16.392 (%) (percentage of peak area of the material with a retention time of 16.392 min) ([1]; Sprague-Dawley (SD), 2 h): 0.0%
- Prednisone (%) (released from Compound 17) ([1]; Sprague-Dawley (SD), 3 h): 21.2%
- T14.148 (%) (percentage of peak area of the material with a retention time of 14.148 min) ([1]; Sprague-Dawley (SD), 3 h): 65.5%
- T14.713 (%) (percentage of peak area of the material with a retention time of 14.713 min) ([1]; Sprague-Dawley (SD), 3 h): 0.0%
- T16.392 (%) (percentage of peak area of the material with a retention time of 16.392 min) ([1]; Sprague-Dawley (SD), 3 h): 0.0%
- Prednisone (%) (released from Compound 17) ([1]; Sprague-Dawley (SD), 20 h): 39.7%
- T14.148 (%) (percentage of peak area of the material with a retention time of 14.148 min) ([1]; Sprague-Dawley (SD), 20 h): 12.7%
- T14.713 (%) (percentage of peak area of the material with a retention time of 14.713 min) ([1]; Sprague-Dawley (SD), 20 h): 19.2%
- T16.392 (%) (percentage of peak area of the material with a retention time of 16.392 min) ([1]; Sprague-Dawley (SD), 20 h): 6.4%
- Compound 17 (%) ([1]; Sprague-Dawley, 3 h): 11.3%
- percentage of the compound degraded ([1]; Sprague-Dawley, 3 h): about 90%
- Compound 17 (%) ([2]; Acetate buffer solution, pH 4.0, 37° C., 0 h): 99.6%
- Compound 17 (%) ([2]; Acetate buffer solution, pH 4.0, 37° C., 0.5 h): 99.6%
- Compound 17 (%) ([2]; Acetate buffer solution, pH 4.0, 37° C., 1 h): 99.5%
- Compound 17 (%) ([2]; Acetate buffer solution, pH 4.0, 37° C., 1.5 h): 99.4%
- Compound 17 (%) ([2]; Acetate buffer solution, pH 4.0, 37° C., 4 h): 99.2%
- Compound 17 (%) ([2]; Acetate buffer solution, pH 4.0, 37° C., 20 h): 97.1%
- Compound 17 (%) ([2]; Acetate buffer solution, pH 4.0, 37° C., 24 h): 96.5%
- Compound 17 (%) ([2]; Hydrochloric acid solution, pH 1.2, 37° C., 0 h): 96.0%
- Compound 17 (%) ([2]; Hydrochloric acid solution, pH 1.2, 37° C., 0.5 h): 47.1%
- Compound 17 (%) ([2]; Hydrochloric acid solution, pH 1.2, 37° C., 1 h): 22.1%
- Compound 17 (%) ([2]; Hydrochloric acid solution, pH 1.2, 37° C., 2 h): 4.5%
- Compound 17 (%) ([2]; Hydrochloric acid solution, pH 1.2, 37° C., 3 h): 1.0%
- Compound 17 (%) ([2]; Hydrochloric acid solution, pH 2.0, 37° C., 0 h): 99.7%
- Compound 17 (%) ([2]; Hydrochloric acid solution, pH 2.0, 37° C., 0.5 h): 93.3%
- Compound 17 (%) ([2]; Hydrochloric acid solution, pH 2.0, 37° C., 1 h): 86.5%
- Compound 17 (%) ([2]; Hydrochloric acid solution, pH 2.0, 37° C., 1.5 h): 80.1%
- Compound 17 (%) ([2]; Hydrochloric acid solution, pH 2.0, 37° C., 2 h): 74.6%
- Compound 17 (%) ([2]; Hydrochloric acid solution, pH 2.0, 37° C., 3 h): 64.5%
- Compound 17 (%) ([2]; Hydrochloric acid solution, pH 2.0, 37° C., 4 h): 55.3%
- Compound 17 (%) ([2]; Hydrochloric acid solution, pH 2.0, 37° C., 8 h): 30.8%
- Compound 17 (%) ([2]; Hydrochloric acid solution, pH 2.0, 37° C., 24 h): 2.5%
- Compound 17 (%) ([2]; Phosphate buffer solution, pH 5.8, 37° C., 0 h): 99.5%
- Compound 17 (%) ([2]; Phosphate buffer solution, pH 5.8, 37° C., 1 h): 97.3%
- Compound 17 (%) ([2]; Phosphate buffer solution, pH 5.8, 37° C., 6 h): 99.4%
- Compound 17 (%) ([2]; Phosphate buffer solution, pH 5.8, 37° C., 8 h): 99.5%
- Compound 17 (%) ([2]; Phosphate buffer solution, pH 5.8, 37° C., 33 h): 99.3%
- Compound 17 (%) ([2]; Phosphate buffer solution, pH 6.8, 37° C., 0 h): 97.3%
- Compound 17 (%) ([2]; Phosphate buffer solution, pH 6.8, 37° C., 1 h): 97.5%
- Compound 17 (%) ([2]; Phosphate buffer solution, pH 6.8, 37° C., 6 h): 99.0%
- Compound 17 (%) ([2]; Phosphate buffer solution, pH 6.8, 37° C., 8 h): 99.0%
- Compound 17 (%) ([2]; Phosphate buffer solution, pH 6.8, 37° C., 33 h): 97.6%
- Compound 17 (%) ([2]; Phosphate buffer solution, pH 7.8, 37° C., 0 h): 97.5%
- Compound 17 (%) ([2]; Phosphate buffer solution, pH 7.8, 37° C., 1 h): 97.6%
- Compound 17 (%) ([2]; Phosphate buffer solution, pH 7.8, 37° C., 6 h): 97.6%
- Compound 17 (%) ([2]; Phosphate buffer solution, pH 7.8, 37° C., 8 h): 97.6%
- Compound 17 (%) ([2]; Phosphate buffer solution, pH 7.8, 37° C., 33 h): 97.7%
- Compound 17 (%) ([2]; Simulated gastric fluid (containing pepsin) (pH 2.0), 37° C., 0 h): 97.0%
- Compound 17 (%) ([2]; Simulated gastric fluid (containing pepsin) (pH 2.0), 37° C., 0.5 h): 53.6%
- Compound 17 (%) ([2]; Simulated gastric fluid (containing pepsin) (pH 2.0), 37° C., 1 h): 28.9%
- Compound 17 (%) ([2]; Simulated gastric fluid (containing pepsin) (pH 2.0), 37° C., 1.5 h): 15.6%
- Compound 17 (%) ([2]; Simulated gastric fluid (containing pepsin) (pH 2.0), 37° C., 2 h): 7.0%
- Compound 17 (%) ([2]; Simulated gastric fluid (containing pepsin) (pH 2.0), 37° C., 3 h): 2.1%
- Compound 17 (%) ([2]; Simulated intestinal fluid (containing pancreatin) (pH 6.8), 37° C., 0 h): 97.6%
- Compound 17 (%) ([2]; Simulated intestinal fluid (containing pancreatin) (pH 6.8), 37° C., 1 h): 97.4%
- Compound 17 (%) ([2]; Simulated intestinal fluid (containing pancreatin) (pH 6.8), 37° C., 6 h): 97.7%
- Compound 17 (%) ([2]; Simulated intestinal fluid (containing pancreatin) (pH 6.8), 37° C., 8 h): 97.7%
- Compound 17 (%) ([2]; Simulated intestinal fluid (containing pancreatin) (pH 6.8), 37° C., 33 h): 96.2%
- Compound 17 (%) ([2]; Water (pH 6.2), 37° C., 0 h): 97.6%
- Compound 17 (%) ([2]; Water (pH 6.2), 37° C., 1 h): 97.6%
- Compound 17 (%) ([2]; Water (pH 6.2), 37° C., 6 h): 97.6%
- Compound 17 (%) ([2]; Water (pH 6.2), 37° C., 8 h): 98.2%
- Compound 17 (%) ([2]; Water (pH 6.2), 37° C., 33 h): 98.0%
- percentage of remaining Compound 17 ([2]; pH 2.0 or higher, within 1.5 hours, 37° C.): greater than 80%
